According to patent US9663525B2, “Pyrazolopyrimidinyl inhibitors of ubiquitin-activating enzyme” (Millennium Pharmaceuticals, Inc., priority 2012, dated 2017):

molecular target: recombinant human UAE (Homo sapiens (Human), UniProt P22314); assay: Ubiquitin Activating Enzyme (UAE) HTRF assay, human UAE; conditions: not given
Sequence (P22314 whole entry): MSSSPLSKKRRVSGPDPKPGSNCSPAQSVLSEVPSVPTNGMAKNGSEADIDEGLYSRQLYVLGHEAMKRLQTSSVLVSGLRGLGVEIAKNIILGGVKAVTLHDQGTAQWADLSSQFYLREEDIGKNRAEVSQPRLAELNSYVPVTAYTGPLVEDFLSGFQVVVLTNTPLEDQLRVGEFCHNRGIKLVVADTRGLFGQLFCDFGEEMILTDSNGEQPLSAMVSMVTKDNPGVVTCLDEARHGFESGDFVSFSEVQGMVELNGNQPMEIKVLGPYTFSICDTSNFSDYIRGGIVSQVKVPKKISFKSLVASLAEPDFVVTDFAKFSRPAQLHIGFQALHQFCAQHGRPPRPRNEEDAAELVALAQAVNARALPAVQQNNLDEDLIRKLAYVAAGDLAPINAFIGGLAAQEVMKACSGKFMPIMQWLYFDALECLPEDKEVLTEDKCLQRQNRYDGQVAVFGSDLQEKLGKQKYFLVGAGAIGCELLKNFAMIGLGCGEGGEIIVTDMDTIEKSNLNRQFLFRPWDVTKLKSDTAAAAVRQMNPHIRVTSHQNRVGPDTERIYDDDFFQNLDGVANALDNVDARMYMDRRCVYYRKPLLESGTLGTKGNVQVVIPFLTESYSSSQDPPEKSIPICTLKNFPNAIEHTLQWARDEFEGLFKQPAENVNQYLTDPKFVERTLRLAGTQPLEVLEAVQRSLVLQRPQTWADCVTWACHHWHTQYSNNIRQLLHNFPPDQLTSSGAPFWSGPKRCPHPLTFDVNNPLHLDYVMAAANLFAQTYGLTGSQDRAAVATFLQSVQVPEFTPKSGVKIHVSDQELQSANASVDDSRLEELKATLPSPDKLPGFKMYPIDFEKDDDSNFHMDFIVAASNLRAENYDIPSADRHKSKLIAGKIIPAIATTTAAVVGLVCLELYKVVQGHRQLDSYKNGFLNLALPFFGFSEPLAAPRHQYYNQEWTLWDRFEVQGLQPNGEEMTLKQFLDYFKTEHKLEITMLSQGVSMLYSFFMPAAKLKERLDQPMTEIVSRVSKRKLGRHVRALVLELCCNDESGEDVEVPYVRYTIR

SMILES	IC50 [nM]
NS(=O)(=O)OC[C@H]1C[C@@H](Nc2ccnc3cc(-c4cccc(N5CCCCC5)c4)nn23)[C@H](O)[C@@H]1O (racemic) [Compound I-077, (rac)-((1R,2R,3S,4R)-2,3-dihydroxy-4-(2-(3-(piperidin-1-yl)phenyl)pyrazolo[1,5-a]pyrimidin-7-ylamino)cyclopentyl)methyl rel-sulfamate]	< 10
NS(=O)(=O)OC[C@H]1C[C@@H](Nc2ccnc3cc(-c4ccnc(C(F)(F)F)c4)nn23)[C@H](O)[C@@H]1O (racemic) [Compound I-059, (rac)-((1R,2R,3S,4R)-2,3-dihydroxy-4-(2-(2-(trifluoromethyl)pyridin-4-yl)pyrazolo[1,5-a]pyrimidin-7-ylamino)cyclopentyl)methyl rel-sulfamate]	10 to 100
NS(=O)(=O)OC[C@H]1C[C@@H](Nc2ccnc3cc(-c4cccc(-c5ccccc5)c4)nn23)[C@H](O)[C@@H]1O (racemic) [Compound I-003, (rac)((1R,2R,3S,4R)-4-(2-(biphenyl-3-yl)pyrazolo[1,5-a]pyrimidin-7-ylamino)-2,3-dihydroxycyclopentyl)methyl rel-sulfamate]	< 10
NS(=O)(=O)OC[C@H]1C[C@@H](Nc2ccnc3cc(-c4cccc(C(F)(F)F)c4)nn23)[C@H](O)[C@@H]1O (racemic) [Compound I-007, (rac)-((1R,2R,3S,4R)-2,3-Dihydroxy-4-((2-(3-(trifluoromethyl)phenyl)pyrazolo[1,5-a]pyrimidin-7-yl)amino)cyclopentyl)methyl rel-sulfamate]	< 10
NS(=O)(=O)OC[C@H]1C[C@@H](Nc2ccnc3cc(-c4cc(Cl)ccc4OC(F)(F)F)nn23)[C@H](O)[C@@H]1O (racemic) [Compound I-057, (rac)-((1R,2R,3S,4R)-4-(2-(5-chloro-2-(trifluoromethoxy)phenyl)pyrazolo[1,5-a]pyrimidin-7-ylamino)-2,3-dihydroxycyclopentyl)methyl rel-sulfamate]	< 10
NS(=O)(=O)OC[C@H]1C[C@@H](Nc2ccnc3cc(-c4ccc5ccccc5n4)nn23)[C@H](O)[C@@H]1O (racemic) [Compound I-042, (rac)-((1R,2R,3S,4R)-2,3-dihydroxy-4-(2-(quinolin-2-yl)pyrazolo[1,5-a]pyrimidin-7-ylamino)cyclopentyl)methyl rel-sulfamate]	< 10
COc1ccc(-c2cc3nc(Cl)cc(N[C@@H]4C[C@H](COS(N)(=O)=O)[C@@H](O)[C@H]4O)n3n2)cc1 (racemic) [Compound I-014, (rac)-[(1R,2R,3S,4R)-4-{[5-chloro-2-(4-methoxyphenyl)pyrazolo[1,5-a]-pyrimidin-7-yl]amino}-2,3-dihydroxycyclopentyl]methyl rel-sulfamate]	100 to 1000
COc1ccc(OC(F)(F)F)cc1-c1cc2nccc(N[C@@H]3C[C@H](COS(N)(=O)=O)[C@@H](O)[C@H]3O)n2n1 (racemic) [Compound I-066, (rac)-((1R,2R,3S,4R)-2,3-Dihydroxy-4-((2-(2-methoxy-5-(trifluoromethoxy)-phenyl)pyrazolo[1,5-a]pyrimidin-7-yl)amino)cyclopentyl)methyl rel-sulfamate]	< 10
NS(=O)(=O)OC[C@H]1C[C@@H](Nc2ccnc3cc(-c4ccc5c(c4)oc4ccccc45)nn23)[C@H](O)[C@@H]1O (racemic) [Compound I-093, (rac)-((1R,2R,3S,4R)-4-(2-(dibenzo[b,d]furan-3-yl)pyrazolo[1,5-a]pyrimidin-7-ylamino)-2,3-dihydroxycyclopentyl)methyl rel-sulfamate]	< 10
COc1ccc(Cl)cc1-c1cc2nccc(N[C@@H]3C[C@H](COS(N)(=O)=O)[C@@H](O)[C@H]3O)n2n1 (racemic) [Compound I-020, (rac)-((1R,2R,3S,4R)-4-(2-(5-chloro-2-methoxyphenyl)pyrazolo[1,5-a]pyrimidin-7-ylamino)-2,3-dihydroxycyclopentyl)methyl rel-sulfamate]	< 10
COc1ccc(C(F)(F)F)cc1-c1cc2nccc(N[C@@H]3C[C@H](COS(N)(=O)=O)[C@@H](O)[C@H]3O)n2n1 (racemic) [Compound I-065, (rac)-((1R,2R,3S,4R)-2,3-Dihydroxy-4-((2-(2-methoxy-5-(trifluoromethyl)phenyl)-pyrazolo[1,5-a]pyrimidin-7-yl)amino)cyclopentyl)methyl rel-sulfamate]	< 10
CC1(C)COc2c(-c3cc4nccc(N[C@@H]5C[C@H](COS(N)(=O)=O)[C@@H](O)[C@H]5O)n4n3)cccc21 (racemic) [Compound I-023, (rac)-((1R,2R,3S,4R)-4-(2-(3,3-dimethyl-2,3-dihydrobenzofuran-7-yl)pyrazolo[1,5-a]pyrimidin-7-ylamino)-2,3-dihydroxycyclopentyl)methyl rel-sulfamate]	10 to 100
Cc1cnc2cc(-c3ccccc3)nn2c1N[C@@H]1C[C@H](COS(N)(=O)=O)[C@@H](O)[C@H]1O (relative stereo) [Compound I-089, (rac)-{(1R,2R,3S,4R)-2,3-dihydroxy-4-[(6-methyl-2-phenylpyrazolo[1,5-a]pyrimidin-7-yl)amino]cyclopentyl}methyl rel-sulfamate]	100 to 1000
CC(C)(C)c1cccc(-c2cc3nccc(N[C@@H]4C[C@H](COS(N)(=O)=O)[C@@H](O)[C@H]4O)n3n2)c1 (racemic) [Compound I-015, (rac)-((1R,2R,3S,4R)-4-((2-(3-(tert-Butyl)phenyl)pyrazolo[1,5-a]pyrimidin-7-yl)amino)-2,3-dihydroxycyclopentyl)methyl rel-sulfamate]	< 10
C[Si](C)(C)c1cccc(-c2cc3nccc(N[C@@H]4C[C@H](COS(N)(=O)=O)[C@@H](O)[C@H]4O)n3n2)c1 (racemic) [Compound I-035, (rac)-((1R,2R,3S,4R)-2,3-dihydroxy-4-(2-(3-(trimethylsilyl)phenyl)pyrazolo[1,5-a]pyrimidin-7-ylamino)cyclopentyl)methyl rel-sulfamate]	< 10
NS(=O)(=O)OC[C@H]1C[C@@H](Nc2ccnc3cc(-c4ccc5oc6ccccc6c5c4)nn23)[C@H](O)[C@@H]1O (racemic) [Compound I-019, (rac)-((1R,2R,3S,4R)-4-(2-(dibenzo[b,d]furan-2-yl)pyrazolo[1,5-a]pyrimidin-7-ylamino)-2,3-dihydroxycyclopentyl)methyl rel-sulfamate]	< 10
NS(=O)(=O)OC[C@H]1C[C@@H](Nc2ccnc3cc(-c4cc5ccc(Cl)cc5s4)nn23)[C@H](O)[C@@H]1O (racemic) [Compound I-088, (rac)-((1R,2R,3S,4R)-4-(2-(6-chlorobenzo[b]thiophen-2-yl)pyrazolo[1,5-a]pyrimidin-7-ylamino)-2,3-dihydroxycyclopentyl)methyl rel-sulfamate]	10 to 100
NS(=O)(=O)OC[C@H]1C[C@@H](Nc2ccnc3cc(-c4cccc(Cc5ccccc5)c4)nn23)[C@H](O)[C@@H]1O (racemic) [Compound I-069, (rac)-((1R,2R,3S,4R)-4-(2-(3-benzylpenyl)pyrazolo[1,5-a]pyrimidin-7-ylamino)-2,3-dihydroxycyclopentyl)methyl rel-sulfamate]	10 to 100
NS(=O)(=O)OC[C@H]1C[C@@H](Nc2ccnc3cc(-c4ccccc4SC(F)(F)F)nn23)[C@H](O)[C@@H]1O (racemic) [Compound I-079, (rac)-((1R,2R,3S,4R)-2,3-dihydroxy-4-(2-(2-(trifluoromethylthio)phenyl)pyrazolo[1,5-a]pyrimidin-7-ylamino)cyclopentyl)methyl rel-sulfamate]	10 to 100
NS(=O)(=O)OC[C@H]1C[C@@H](Nc2ccnc3cc(-c4ccc5c(c4)[nH]c4ccccc45)nn23)[C@H](O)[C@@H]1O (racemic) [Compound I-062, (rac)-[(1R,2R,3S,4R)-4-{[2-(9H-carbazol-2-yl)pyrazolo[1,5-a]pyrimidin-7-yl]amino}-2,3-dihydroxycyclopentyl]methyl rel-sulfamate]	< 10
NS(=O)(=O)OC[C@H]1C[C@@H](Nc2ccnc3cc(-c4ccccc4Oc4ccccc4)nn23)[C@H](O)[C@@H]1O (racemic) [Compound I-068, (rac)-((1R,2R,3S,4R)-2,3-dihydroxy-4-(2-(2-phenoxyphenyl)pyrazolo[1,5-a]pyrimidin-7-ylamino)cyclopentyl)methyl rel-sulfamate]	10 to 100
Cn1cc(-c2cccc(-c3cc4nccc(N[C@@H]5C[C@H](COS(N)(=O)=O)[C@@H](O)[C@H]5O)n4n3)c2)cn1 (racemic) [Compound I-122, (rac)-[(1R,2R,3S,4R)-2,3-dihydroxy-4-({2-[3-(1-methyl-1H-pyrazol-4-yl)phenyl]pyrazolo[1,5-a]pyrimidin-7-yl}amino)cyclopentyl]methyl rel-sulfamate]	< 10
Cc1ccc(Cl)cc1-c1cc2nccc(N[C@@H]3C[C@H](COS(N)(=O)=O)[C@@H](O)[C@H]3O)n2n1 (racemic) [Compound I-021, (rac)-((1R,2R,3S,4R)-4-(2-(5-chloro-2-methylphenyl)pyrazolo[1,5-a]pyrimidin-7-ylamino)-2,3-dihydroxycyclopentyl)methyl rel-sulfamate]	< 10
Cc1sc(-c2ccccc2)nc1-c1cc2nccc(N[C@@H]3C[C@H](COS(N)(=O)=O)[C@@H](O)[C@H]3O)n2n1 (racemic) [Compound I-038, (rac)-[(1R,2R,3S,4R)-2,3-dihydroxy-4-{[2-(5-methyl-2-phenyl-1,3-thiazol-4-yl)pyrazolo[1,5-a]pyrimidin-7-yl]amino}cyclopentyl]methyl rel-sulfamate]	< 10
NS(=O)(=O)OC[C@H]1C[C@@H](Nc2ccnc3cc(-c4cncc(-c5ccccc5)n4)nn23)[C@H](O)[C@@H]1O (racemic) [Compound I-121, (rac)-((1R,2R,3S,4R)-2,3-dihydroxy-4-{[2-(6-phenylpyrazin-2-yl)pyrazolo[1,5-a]pyrimidin-7-yl]amino}cyclopentyl)methyl rel-sulfamate]	< 10

same assay, conditions: human UAE

SMILES	IC50 [nM]
COc1ccc(OC(F)(F)F)cc1-c1cc2nccc(N[C@@H]3C[C@H](COS(N)(=O)=O)[C@@H](O)[C@H]3O)n2n1 [Compound I-102, (s.e)-[(1R,2R,3S,4R)-2,3-dihydroxy-4-({2-[2-methoxy-5-(trifluoromethoxy)-phenyl]pyrazolo[1,5-a]pyrimidin-7-yl}amino)cyclopentyl]methyl sulfamate]	< 10
